Measured values from patent publication US7405211B2, “Therapeutic morpholino-substituted compounds” (AstraZeneca AB, priority 2000, dated 2008).

Experiments:
Assay type in all cases: biochemical
[1] = test system: PI 3-kinase immunoprecipitated from human platelets; assay: In vitro PI 3-kinase assay (32P incorporation into PI); settings: PI 3-kinase from human platelets, PI substrate
Experimental: The effect of TGX-25, TGX-33, TGX-37, TGX-40, TGX-41, TGX-57, TGX-84, TGX-90, TGX-93, TGX-98, TGX-99, TGX-101, TGX-106, TGX-107, TGX-108, TGX-109, TGX-111, TGX-112, TGX-113, TGX-115, TGX-120, TGX-121, TGX-123, TGX-124, TGX-126, TGX-127, TGX-130 or TGX-131on PI 3-kinase activity was determined using an in vitro PI 3-kinase assay. This assay was performed using PI 3-kinase immunoprecipitated from human platelets as the enzyme and PI as the substrate. The PI 3-kinase activity was quantitated by measuring the enzymatic incorporation of [^32P] into PI, forming PI([^32P]-3)P, as previously described (Susa et al., 1992, The Journal of Biological Chemistry 267(32):22951-22956.
Washed human platelets were lysed in Triton X-100 lysis buffer (10 mM Tris, pH 7.4, 1% Triton X-100, 2 mM EDTA, 1 mM PMSF) for 30 minutes. The Triton X-100 insoluble fraction was removed by centrifugation of the cell lysates at 15,000 g for 10 minutes. PI 3-kinase was immunoprecipitated by mixing 500 μg of the cell lysate with 1 μg of a rabbit anti-rat antibody against the p85/110 form of PI 3-kinase and 30 μl of 50% Protein A-sepharose beads for 2 hours at 4° C. The Protein A-sepharose-bound PI 3-kinase was isolated by pelleting the beads at 15,000 g for 5 seconds, and washing three times with ice-old Triton X-100 lysis buffer followed by four washes with PI 3-kinase assay buffer (20 mM HEPES, pH 7.4, 1 mM EGTA, 5 mM MgCl2).
PI stored in CHCl3 was dried under N2, resuspended in the lipid buffer (50 mM HEPES, pH 7.2, 1 mM EDTA) at a final concentration of 330 μg/ml, and sonicated for 6 minutes on ice. PI([^32P]-3)P was generated by mixing the immunoprecipitated PI 3-kinase for 20 minutes with 40 μl of the PI, 10 μl of ATP (1 mM) and ^32P-r-ATP (0.5 μCi, 1 μCi/nmol), 10 μl of 10× kinase buffer, in a final assay volume of 100 μl adjusted with H2O. TGX-25, TGX-33, TGX-37, TGX-40, TGX-41, TGX-57, TGX-84, TGX-90, TGX-93, TGX-98, TGX-99, TGX-101, TGX-106, TGX-107, TGX-108, TGX-109, TGX-111, TGX-112, TGX-113, TGX-115, TGX-120, TGX-121, TGX-123, TGX-124, TGX-126, TGX-127, TGX-130 or TGX-131 was preincubated with the PI 3-kinase for 5 minutes prior to the addition of ATP. The assay was terminated with 100 μl of 1 N HCl, and the PI([^32P]-3)P product extracted with 200 μl chloroform:methanol (1:1) and 500 μl 2 M KCl. The PI([^32P]-3)P in the chloroform phase was resolved by thin layer chromatography using a solvent system containing CHCl3:MeOH:HAC:H2O (43:38:5:7) (v:v:v:v), and visualized by autoradiography. The PI([^32P]-3)P spots were then scraped off from the TLC plates, deacylated with 1 ml methylamine:butanol:methanol (42:9:47) (v:v:v) for 4 hours at 53° C., and quantitated using a liquid scintillation counter (LKB 1209 RackBETA).

PI3K γ = molecular target: T1, PI3K γ (Homo sapiens, UniProt P48736); assay: In vitro enzyme assay PI3K γ (recombinant); settings: recombinant γ isoform
T1 construct: made in house
Experimental: (§1) In vitro enzyme assays were conducted as a primary screen to determine drug candidate isoform affinity and specificity.
(§2) The α and β isoforms of the PI3K were immunoprecipitated from a platelet lysate using an antibody that recognised the p85 regulatory subunit common to both forms of the enzyme. The γ isoform was produced as a recombinant protein in the Thrombogenix laboratories. […] Standard phosphorylation assays using phosphatidylinositol and ^32P were used to measure the enzyme activity in the immunoprecipates in the presence or absence of an inhibitor. Enzyme activity was determined over a range of inhibitor concentrations to establish an IC50 value.

PI3K α/β isoforms = assay: In vitro enzyme assay PI3K α/β; settings: immunoprecipitated from platelet lysate
Experimental: as §1, §2

T1 sequence (P48736 whole entry, species assumed, canonical isoform): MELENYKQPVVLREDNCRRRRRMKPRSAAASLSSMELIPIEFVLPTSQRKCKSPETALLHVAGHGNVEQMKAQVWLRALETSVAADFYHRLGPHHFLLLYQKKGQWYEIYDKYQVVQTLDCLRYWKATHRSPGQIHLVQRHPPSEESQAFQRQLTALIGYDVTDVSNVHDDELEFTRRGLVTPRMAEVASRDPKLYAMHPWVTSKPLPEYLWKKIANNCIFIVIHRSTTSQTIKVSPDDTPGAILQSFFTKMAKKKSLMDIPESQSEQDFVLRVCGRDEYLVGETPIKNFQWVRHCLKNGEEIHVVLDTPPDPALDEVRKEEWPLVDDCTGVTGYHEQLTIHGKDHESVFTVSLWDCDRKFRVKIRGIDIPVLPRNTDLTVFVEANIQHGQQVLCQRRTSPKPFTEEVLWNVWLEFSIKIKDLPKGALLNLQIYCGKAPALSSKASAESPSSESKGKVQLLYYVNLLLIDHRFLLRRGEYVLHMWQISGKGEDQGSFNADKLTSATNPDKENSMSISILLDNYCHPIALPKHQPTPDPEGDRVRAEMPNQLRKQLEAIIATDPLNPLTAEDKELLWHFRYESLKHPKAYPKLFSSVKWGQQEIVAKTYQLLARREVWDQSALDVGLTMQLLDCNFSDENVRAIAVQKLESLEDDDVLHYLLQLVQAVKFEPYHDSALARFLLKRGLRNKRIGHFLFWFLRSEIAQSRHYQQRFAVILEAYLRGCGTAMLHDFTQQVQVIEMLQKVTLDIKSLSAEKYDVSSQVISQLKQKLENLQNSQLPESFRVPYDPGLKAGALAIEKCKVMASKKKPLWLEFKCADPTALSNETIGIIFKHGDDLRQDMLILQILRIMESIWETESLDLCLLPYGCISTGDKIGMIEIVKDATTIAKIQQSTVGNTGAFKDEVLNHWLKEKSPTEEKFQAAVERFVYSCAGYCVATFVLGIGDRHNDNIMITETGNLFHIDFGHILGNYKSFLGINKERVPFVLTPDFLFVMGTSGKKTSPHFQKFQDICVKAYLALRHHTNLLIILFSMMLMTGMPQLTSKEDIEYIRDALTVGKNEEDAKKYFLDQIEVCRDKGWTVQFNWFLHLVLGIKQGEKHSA

| SMILES | IC50 [1] [nM] | IC50 (PI3K γ) [nM] | IC50 (PI3K α/β isoforms) [nM] |
| --- | --- | --- | --- |
| O=c1cc(N2CCOCC2)nc2c(Oc3ccccc3)cccn12 [TGX-141, 2-Morpholinyl-8-phenoxy-4H-pyrido[1,2a]pyrimidin-4-one] | 1000 | – | – |
| Cc1cc(-c2ccccc2)c2nc(N3CCOCC3)cc(=O)n2c1 [TGX-41] | ~9800 | – | – |
| COC(=O)c1cccc(Oc2cccc3c(=O)cc(N4CCOCC4)[nH]c23)c1 [TGX-149] | 500 | – | – |
| Cc1cc(Nc2ccc(O)cc2)c2nc(N3CCOCC3)cc(=O)n2c1 [TGX-101] | 100 | 2000 | 100 |
| O=C(O)c1cccc(Oc2cccc3c(=O)cc(N4CCOCC4)[nH]c23)c1 [TGX-151] | 500 | – | – |
| O=c1cc(N2CCOCC2)oc2c(Cc3ccccc3)cccc12 [TGX-90, 2-morpholinyl-8-(phenylmethyl)-4H-1-benzopyran-4-one] | 100 | 3000 | 100 |
| Cc1cc(Nc2ccccc2O)c2nc(N3CCOCC3)cc(=O)n2c1 [TGX-130] | 200 | – | – |
| Cc1c(Oc2ccccc2)ccc2c(=O)cc(N3CCOCC3)oc12 [TGX-158] | 5000 | – | – |
| Cc1cc(N[C@@H](C)c2ccccc2)c2nc(N3CCOCC3)cc(=O)n2c1 [TGX-124] | 1000 | – | – |
| Cc1cc(Oc2cccc3c(=O)cc(N4CCOCC4)oc23)ccc1F [TGX-173, 8-(4-fluoro-3-methylphenyl)oxy-2-morpholinyl-4H-1-benzopyran-4-one] | 100 | – | 150 |
| Cc1cc(NCC2CCNCC2)c2nc(N3CCOCC3)cc(=O)n2c1 [TGX-139] | 1000 | – | – |
| Cc1cc(-c2ccccc2C(F)(F)F)c2nc(N3CCOCC3)cc(=O)n2c1 [TGX-142] | 2000 | – | – |
| O=c1cc(N2CCOCC2)oc2c(Oc3ccccc3)cccc12 [TGX-134, 2-(4-morpholinyl)-8-phenoxy-4H-1-benzopyran-4-one] | 100 | 200 | 100 |
| O=c1cc(N2CCOCC2)[nH]c2c(Cc3ccccc3)cccc12 [TGX-57, 8-Benzyl-2-morpholinoquinolone] | 2000 | – | – |
| O=c1cc(N2CCOCC2)oc2cc(/C=C/c3ccccc3)ccc12 [TGX-118] | 10000 | – | – |
| Cc1cc(CNc2ccccc2)c2nc(N3CCOCC3)cc(=O)n2c1 [TGX-183, 6-methyl-8-phenylaminomethyl-2-morpholinyl-4H-pyrido[1,2]pyrimidin-4-one] | – | – | 50 |
| Cc1ccc(S(=O)(=O)Oc2cccc3c(=O)cc(N4CCOCC4)[nH]c23)cc1 [TGX-138] | 1000 | – | – |
| Cc1c(Oc2ccccc2)ccc2c(=O)cc(N3CCOCC3)oc12 [TGX-160] | 2000 | – | – |
| Cc1c(OCc2ccccc2)ccc2c(=O)cc(N3CCOCC3)oc12 [TGX-154] | 10000 | – | – |
| Cc1ccc(Oc2cc(C)cn3c(=O)cc(N4CCOCC4)nc23)cc1 [TGX-109] | 1000 | – | – |
| Cc1cc(Cl)ccc1Oc1cccc2c(=O)cc(N3CCOCC3)[nH]c12 [TGX-180] | 1000 | – | – |
| Cc1ccccc1-c1cccc2c(=O)cc(N3CCOCC3)oc12 [TGX-145, 2-morpholinyl-8-(2-methylphenyl)-4H-1-benzopyran-4-one] | 2000 | – | – |
| Cc1cc(Nc2ccc(Cl)cc2)c2nc(N3CCOCC3)cc(=O)n2c1 [TGX-107] | 1000 | – | – |
| Cc1cc(Nc2ccccc2C(F)(F)F)c2nc(N3CCOCC3)cc(=O)n2c1 [TGX-147] | 5000 | – | – |
| Cc1cc(Nc2ccncc2)c2nc(N3CCOCC3)cc(=O)n2c1 [TGX-120] | 1000 | – | – |
| Cc1cc(NCc2ccncc2)c2nc(N3CCOCC3)cc(=O)n2c1 [TGX-112] | 500 | – | – |
| Cc1cccn2c(=O)cc(N3CCOCC3)nc12 [TGX-25] | ~11100 | – | – |
| Cc1ccccc1Oc1cccc2c(=O)cc(N3CCOCC3)[nH]c12 [TGX-115, 8-(2′-Methylphenoxy)-2-morpholino-4-quinoline] | 50 | 5000 | 50 |
